From patent publication US12466817B2, “Pyridine derivative and application thereof” (Nicoya Therapeutics (Shanghai) Co., Ltd, priority 2020, dated 2025)

Key:
[1] = target: T1, CCR2 (Homo sapiens, UniProt P41597); assay: CCR2 FLIPR Calcium assay (intracellular calcium signaling); type: cell-based; conditions: HEK293 host cells, clone C7; agonist MCP-1; Fluo-4 calcium signal
T1 construct: expressed in transfected cells; host or cells: HEK293, clone C7, passage P6
Procedure: (§1) The inhibitory effects of the compounds on CCR2 and CCR5 receptors were evaluated by detecting intracellular calcium signaling changes by FLIPR Calcium assay, using the IC50 values of the compounds as indicators.
(§2) 1. Cell lines: The cells were seeded and incubated overnight at 37° C. in a 5% CO2 incubator CCR2/CCR5 density: 1 M (20 k/well)
(§3) 2. Reagent: Fluo-4 Direct, (Invitrogen, Cat #F10471)
(§4) The compound was prepared by dissolving in DMSO to a 10 mM solution, and the compound solution was placed in a nitrogen chamber.
(§5) Preparation of probenecid in FLIPR assay buffer: 1 mL of FLIPR assay buffer was added to 77 mg of probenecid to make a 250 mM solution. The solution was prepared every day to keep fresh.
(§6) 2× (8 μM) Fluo-4 Direct™ loading buffer (10 mL of each)
(§7) 0.2 mL of probenecid was added to each 10 mL of Fluo-Direct. The final measured concentration was 2.5 mM MCP-1 was diluted in FLIPR assay buffer 1:2 for 10 spots, starting at 0.5 μM (eventually to […]). RANTES was diluted in FLIPR assay buffer 1:3 for 10 spots, starting at 0.5 μM (eventually to […]). 20 μL of serially diluted compound buffer was added to each well of the DRC plate.
(§8) The standard compound was diluted in DMSO 1:3 for 11 points, starting at 1 mM.
(§9) The test compound was diluted in DMSO 1:3 for 11 spots, starting at 2 mM. 250 nL of compound solution was transferred to cell plates using Echo (Greiner #781946) c) The cell plate was taken from the incubator and 20 μL of 2× Fluo-4 Direct no wash loading buffer was gently dispensed into a 384-well cell culture plate using a pipette. The volume in the final cell plate was 40 μL […]
(§10) d) Incubation was conducted at 37° C. 5% CO2 for 50 minutes, at room temperature for 10 minutes e) The cell plate was taken from the incubator and placed in the FLIPR. The composite plate and pipette tip box were placed in the FLIPR
(§11) 5) The “Max-Min” was calculated from Read 90 to the maximum allowed. EC80 values for each cell line were calculated using FLIPR
(§12) 6) Agonist reference compound at 5 times EC80 concentration was prepared 2) 10 μL of agonist reference compound at 5 times EC80 concentration was transferred from the composite plate to the cell plate.
(§13) 3) Fluorescence signals were read.
(§14) 4) The “Max-Min” was calculated from Read 90 to the maximum allowed h) Data was analyzed by using Prism, the IC50 values of the compounds were calculated.

[2] = target: T2, CCR5 (Homo sapiens, UniProt P51681); assay: CCR5 FLIPR Calcium assay (intracellular calcium signaling); type: cell-based; conditions: HEK293 host cells, clone C13; agonist RANTES; Fluo-4 calcium signal
T2 construct: expressed in transfected cells; host or cells: HEK293, clone C13, passage P4
T2 sequence (P51681 whole entry, species assumed): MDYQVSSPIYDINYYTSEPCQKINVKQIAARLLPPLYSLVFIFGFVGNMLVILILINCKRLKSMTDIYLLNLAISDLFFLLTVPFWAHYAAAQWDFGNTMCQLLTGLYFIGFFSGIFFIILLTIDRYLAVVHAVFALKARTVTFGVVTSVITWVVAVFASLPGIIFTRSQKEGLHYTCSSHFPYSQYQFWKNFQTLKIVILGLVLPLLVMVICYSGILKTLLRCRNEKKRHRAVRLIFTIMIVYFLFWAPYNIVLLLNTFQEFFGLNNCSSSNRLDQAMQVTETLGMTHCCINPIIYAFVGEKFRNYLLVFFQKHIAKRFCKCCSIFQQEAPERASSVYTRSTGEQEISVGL
Procedure: as §1, §2, §3, §4, §5, §6, §7, §8, §9, §10, §11, §12, §13, §14

[3] = Comparative pharmacokinetic test in mice; type: in vivo, C57BL/6 male mice; conditions: mice
Procedure: C57BL/6 male mice were used as test animals in the present study, and the plasma drug concentrations of the test compound WX009 and the reference compound in mice by intravenous administration or oral administration were quantified by LC/MS/MS method at different time points respectively to evaluate the pharmacokinetic characteristics of the two test drugs in mice.
A clarified solution of the test compound was injected via tail vein into C57BL/6 mice (overnight fasting, 7-10 weeks old), and the test compound was given by gavage into C57BL/6 mice (overnight fasting, 7-10 weeks old). Approximately 30 μL of blood was collected from the jugular or tail vein at 0.0833, 0.25, 0.5, 1, 2, 4, 6, 8, and 24 hours after administration, and placed in anticoagulation tubes added with EDTA-K2, then centrifuged at 4° C. for 15 minutes at 3000 g to give the plasma. Plasma drug concentration was determined by LC-MS/MS, and relevant pharmacokinetic parameters were calculated using WinNonlin™ Version 6.3 (Pharsight, Mountain View, CA) pharmacokinetic software with a non-compartmental model linear logarithmic trapezoidal method.

[4] = target: T3, CYP3A4 (Homo sapiens, UniProt P08684); assay: Inhibition of human liver microsomal CYP3A4 activity; type: in vitro ADME; conditions: human liver microsomes, conclusion
T3 construct: from tissue; host or cells: human liver microsomes
T3 sequence (P08684 whole entry): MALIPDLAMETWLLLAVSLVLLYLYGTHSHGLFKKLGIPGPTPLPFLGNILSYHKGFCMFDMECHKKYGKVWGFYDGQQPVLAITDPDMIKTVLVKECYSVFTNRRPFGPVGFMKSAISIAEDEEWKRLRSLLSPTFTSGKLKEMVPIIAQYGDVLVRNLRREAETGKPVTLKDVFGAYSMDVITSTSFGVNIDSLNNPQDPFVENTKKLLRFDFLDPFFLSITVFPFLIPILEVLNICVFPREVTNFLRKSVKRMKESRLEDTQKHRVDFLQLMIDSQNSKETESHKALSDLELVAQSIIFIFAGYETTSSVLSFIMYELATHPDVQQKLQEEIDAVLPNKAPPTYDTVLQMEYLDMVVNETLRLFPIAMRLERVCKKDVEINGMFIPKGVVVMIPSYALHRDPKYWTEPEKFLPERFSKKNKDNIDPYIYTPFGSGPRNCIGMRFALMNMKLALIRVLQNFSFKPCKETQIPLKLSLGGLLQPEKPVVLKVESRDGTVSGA
Procedure: A total of five specific probe substrates for the five isozymes of CYP, phenacetin (CYP1A2), diclofenac (CYP2C9), (S′)-mephenytoin (CYP2C19), dextromethorphan ([…]), and midazolam (CYP3A4), were incubated respectively with human liver microsomes and the test compounds, and the reaction was initiated by the addition of reduced nicotinamide adenine dinucleotide phosphate (NADPH), and the samples were treated and the concentrations of the five metabolites produced by the specific substrates, acetaminophen, 4′-hydroxydiclofenac, 4′-hydroxymephenytoin, dextrorphan and 1′-hydroxymidazolam were measured by liquid chromatography tandem mass spectrometry (LC-MS/MS) after the end of the reaction, and the corresponding half maximal inhibitory concentrations (IC50) were calculated.

T1 sequence (P41597 whole entry, species assumed): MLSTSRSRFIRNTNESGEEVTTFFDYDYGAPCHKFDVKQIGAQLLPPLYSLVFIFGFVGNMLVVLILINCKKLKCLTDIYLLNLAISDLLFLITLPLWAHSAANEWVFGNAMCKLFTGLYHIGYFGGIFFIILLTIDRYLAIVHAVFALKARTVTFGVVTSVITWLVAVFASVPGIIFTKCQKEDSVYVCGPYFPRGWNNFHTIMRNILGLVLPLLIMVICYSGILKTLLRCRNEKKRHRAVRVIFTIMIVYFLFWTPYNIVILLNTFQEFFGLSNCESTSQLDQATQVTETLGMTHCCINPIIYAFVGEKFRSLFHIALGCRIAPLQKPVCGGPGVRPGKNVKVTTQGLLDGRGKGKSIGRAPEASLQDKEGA

Row | Molecule | IC50 [1] [nM] | IC50 [2] [nM] | other results
1 | CCCCOCCOc1ccc(-c2ccc3c(c2)C=C(C(=O)Nc2ccc([S+]([O-])Cc4cnccc4CC)cc2)CCCN3CC2COCCO2)cc1 (single isomer, unassigned) [WX002] | 19.5 | 7.47 | –
2 | CCCCOCCOc1ccc(-c2ccc3c(c2)C=C(C(=O)Nc2ccc([S+]([O-])Cc4cnccc4CC)cc2)CCCN3CC2COCCO2)cc1 (single isomer, unassigned) [WX003] | 16.5 | 11.7 | –
3 | CCCCOCCOc1ccc(-c2ccc3c(c2)C=C(C(=O)Nc2ccc([S+]([O-])Cc4cnccc4CC)cc2)CCCN3CC2CCCO2)cc1 (single isomer, unassigned) [WX004] | 19.4 | 6.47 | –
4 | CCCCOCCOc1ccc(-c2ccc3c(c2)C=C(C(=O)Nc2ccc([S+]([O-])Cc4cnccc4CC)cc2)CCCN3CC2CCCO2)cc1 (single isomer, unassigned) [WX005] | 20.9 | 8.9 | –
5 | CCCCOCCOc1ccc(-c2ccc3c(c2)C=C(C(=O)Nc2ccc([S+]([O-])Cc4c(CC)ccnc4C)cc2)CCCN3CC2CCOCC2)cc1 (single isomer, unassigned) [WX006] | 15.9 | – | –
6 | CCCCOCCOc1ccc(-c2ccc3c(c2)C=C(C(=O)Nc2ccc([S+]([O-])Cc4c(CC)ccnc4C)cc2)CCCN3CC2CCCO2)cc1 (single isomer, unassigned) [WX008] | 15.2 | – | –
7 | CCCCOCCOc1ccc(-c2ccc3c(c2)/C=C(/C(=O)Nc2ccc([S@+]([O-])Cc4c(CC)ccnc4C)cc2)CCCN3C[C@H]2CCCO2)cc1 (single isomer, unassigned) [WX010] | 13.7 | – | –
8 | CCCCOCCOc1ccc(-c2ccc3c(c2)/C=C(/C(=O)Nc2ccc([S@+]([O-])Cc4c(CC)ccnc4C)cc2)CCCN3C[C@H]2CCCO2)cc1 (single isomer, unassigned) [WX011] | 1.15 | 3.79 | –
9 | CCCCOCCOc1ccc(-c2ccc3c(c2)C=C(C(=O)Nc2ccc([S+]([O-])Cc4cnc(C)cc4CC)cc2)CCCN3CC2CCOCC2)cc1 (single isomer, unassigned) [WX013] | 19.9 | – | –
10 | CCCCOCCOc1ccc(-c2ccc3c(c2)C=C(C(=O)Nc2ccc([S+]([O-])Cc4cnc(C)cc4CC)cc2)CCCN3CC2CCCO2)cc1 (single isomer, unassigned) [WX014] | 1.39 | 12.1 | –
11 | CCCCOCCOc1ccc(-c2ccc3c(c2)C=C(C(=O)Nc2ccc([S+]([O-])Cc4cnc(C)cc4CC)cc2)CCCN3CC2CCCO2)cc1 (single isomer, unassigned) [WX015] | 21.4 | – | –
12 | CCCCOCCOc1ccc(-c2ccc3c(c2)/C=C(/C(=O)Nc2ccc([S@+]([O-])Cc4cnc(C)cc4CC)cc2)CCCN3C[C@H]2CCCO2)cc1 (single isomer, unassigned) [WX016] | 1.75 | 16.4 | –
13 | CCCCOCCOc1ccc(-c2ccc3c(c2)/C=C(/C(=O)Nc2ccc([S@+]([O-])Cc4cnc(C)cc4CC)cc2)CCCN3C[C@H]2CCCO2)cc1 (single isomer, unassigned) [WX017] | 34 | – | –
14 | CCCCOCCOc1ccc(-c2ccc3c(c2)C=C(C(=O)Nc2ccc([S+]([O-])Cc4c(C)ccnc4C)cc2)CCCN3CC2CCOCC2)cc1 (single isomer, unassigned) [WX018] | – | 15.2 | –
15 | CCCCOCCOc1ccc(-c2ccc3c(c2)C=C(C(=O)Nc2ccc([S+]([O-])Cc4c(C)ccnc4C)cc2)CCCN3CC2CCOCC2)cc1 (single isomer, unassigned) [WX019] | – | 3.9 | –
16 | CCCCOCCOc1ccc(-c2ccc3c(c2)/C=C(/C(=O)Nc2ccc([S+]([O-])Cc4c(C)ccnc4C)cc2)CCCN3CC2CCCO2)cc1 (single isomer, unassigned) [WX020] | – | 5.61 | –
17 | CCCCOCCOc1ccc(-c2ccc3c(c2)/C=C(/C(=O)Nc2ccc([S+]([O-])Cc4c(C)ccnc4C)cc2)CCCN3CC2CCCO2)cc1 (single isomer, unassigned) [WX021] | – | 5.89 | –
18 | CCCCOCCOc1ccc(-c2ccc3c(c2)/C=C(/C(=O)Nc2ccc([S+]([O-])Cc4cnc(C)cc4C)cc2)CCCN3CC2CCCO2)cc1 (single isomer, unassigned) [WX023] | – | 9.71 | –
19 | CCCCOCCOc1ccc(-c2ccc3c(c2)/C=C(/C(=O)Nc2ccc([S+]([O-])Cc4cnc(C)cc4C)cc2)CCCN3CC2CCCO2)cc1 (single isomer, unassigned) [WX024] | – | 11.3 | –
20 | CCCCOCCOc1ccc(-c2ccc3c(c2)/C=C(/C(=O)Nc2ccc([S@@+]([O-])Cc4cncn4CCC)cc2)CCCN3CC(C)C)cc1 [(Cenicriviroc), Cenicriviroc, reference compound] | – | – | half-life ([3]; male, C57BL/6, mouse, plasma, intravenous injection 2 mg/kg): 213 min; clearance ([3]; male, C57BL/6, mouse, plasma, intravenous injection 2 mg/kg, read-out: Plasma clearance rate): 2.28 mL/min/kg; bioavailability ([3]; male, C57BL/6, mouse, plasma, oral 10 mg/kg): 6.02%; Area under the time-concentration curve (0-inf) ([3]; oral 10 mg/kg): 6.401 µM·h; Peak concentration ([3]; oral 10 mg/kg): 1533 nM; Peak time ([3]; oral 10 mg/kg): 1.0 h
21 | CCCCOCCOc1ccc(-c2ccc3c(c2)/C=C(/C(=O)Nc2ccc([S@@+]([O-])Cc4cncn4CCC)cc2)CCCN3CC2CC2)cc1 [Reference A, reference compound] | – | – | Inhibition of CYP3A4 (in words) [4]: strong inhibition
22 | CCCCOCCOc1ccc(-c2ccc3c(c2)/C=C(/C(=O)Nc2ccc([S+]([O-])Cc4cnccc4CC)cc2)CCCN3CC2CCOCC2)cc1 (stereo not shown) [WX001] | 17.6 | 4.36 | –
23 | CCCCOCCOc1ccc(-c2ccc3c(c2)/C=C(/C(=O)Nc2ccc([S+]([O-])Cc4cnc(C)cc4C)cc2)CCCN3CC2CCOCC2)cc1 (stereo not shown) [WX022] | – | 13.6 | –
24 | CCCCOCCOc1ccc(-c2ccc3c(c2)/C=C(/C(=O)Nc2ccc([S@+]([O-])Cc4c(CC)ccnc4CC)cc2)CCCN3CC2CCOCC2)cc1 [WX025] | 2.26 | 4.26 | –
25 | Cenicriviroc [(Cenicriviroc), reference compound] | – | – | Inhibition of CYP3A4 (in words) ([4]; listed as reference compound): strong inhibitory effect; Inhibition of CYP3A4 (in words) ([4]; listed as reference compounds): strong inhibition
